# Article PMC8115619, “Generation of a chemical genetic model for JAK3” (Scientific Reports, 2021)
# Key:
# [1] = system: IL-4 induced STAT6 phosphorylation in spleenocytes; experiment: IL-4 induced STAT6 phosphorylation in spleenocytes; type: cell-based, mouse; settings: wild type mice, inhibitor 1 h, 10 ng/ml IL-4 30 min
# Method: (A) Single cell suspensions were prepared from the spleens of wild type mice. […] Cells were then stimulated with 10 ng/ml IL-4 for 30 min and the levels of phosphorylated STAT6 determined by immunoblotting. (B) As (A) except cells were stimulated with 10 ng/ml IL-2 and the levels of phosphorylated STAT5 determined. (C) CD8 T cells were expanded from the lymph nodes of wild type and JAK3 Cys905Ser knockin mice. Cells were rested in the absence of IL-2 for 60 min then incubated with the indicated concentrations of PF-06651600 for a further 30 min before stimulation with 10 ng/ml of IL-2 for 30 min. The levels of phosphorylated STAT5 and total ERK1/2 were then determined.
# Cells were lysed directly into SDS sample buffer and aliquots run on 10% polyacrylamide gels using standard methods. Proteins were transferred onto nitrocellulose membranes, and specific proteins were detected by immunoblotting. […] Bands were detected using Clarity ECL reagents from BioRad and imaged on a Licor Odyssey Fc system. Quantification was carried out using Licor Image Studio software. After correction for the ERK1/2 levels to account for loading differences, percentage inhibition was calculated relative to the IL-4 stimulated condition. IC50 values were calculated using the same methods as for the in vitro IC50 values.
# CAMK1 = CAMK1 (Homo sapiens, UniProt Q14012); experiment: Selectivity screen CAMK1; type: biochemical; settings: 1 µM inhibitor, mean
# Method: (§1) For the in vitro kinase assay, JAK3 (5–20 mU diluted in 50 mM Tris pH 7.5, 0.1 mM EGTA, 0.05% β-mercaptoethanol, 1 mg/ml BSA) was assayed against PDKtide ([…]) in a final volume of 25.5 µl containing 50 mM Tris pH 7.5, 0.1 mM EGTA, 0.05% β-mercaptoethanol, 100 µM substrate peptide, 10 mM magnesium acetate and 0.02 mM [33P-γ-ATP] (50–1000 cpm/pmole) and incubated for 30 min at room temperature. Assays were started by the addition of the ATP and stopped by addition of 5 µl of 0.5 M (3%) orthophosphoric acid and then harvested onto P81 Unifilter plates with a wash buffer of 50 mM orthophosphoric acid. To determine the Km for ATP, assays were run using 1, 5, 10, 20, 50, 100, 200, 400, 500 μM ATP and Km derived by non-linear regression fitting to the Michaelis–Menten equation v = Vmax[S]/(Km + [S]). IC50 values for inhibitors via non-linear regression using a parameter model: Y = Bottom + (Top–Bottom)/(1 + (IC50/X)^HillSlope). Non-linear regression was carried out in Prism (version 8). In vitro selectivity screen was carried out as described previously.
# JNK2 = JNK2 (Homo sapiens, UniProt P45984); experiment: Selectivity screen JNK2; type: biochemical; settings: 1 µM inhibitor, mean
# Method: as §1
# WNK1 = WNK1 (Homo sapiens, UniProt Q9H4A3); experiment: Selectivity screen WNK1; type: biochemical; settings: 1 µM inhibitor, mean
# Method: as §1
# VEG-FR = VEG-FR (Homo sapiens, UniProt P17948); experiment: Selectivity screen VEG-FR; type: biochemical; settings: 1 µM inhibitor, mean
# Method: as §1
# RSK1 = RSK1 (Homo sapiens, UniProt Q15418); experiment: Selectivity screen RSK1; type: biochemical; settings: 1 µM inhibitor, mean
# Method: as §1
# PKBb = PKBb (Homo sapiens, UniProt P31751); experiment: Selectivity screen PKBb; type: biochemical; settings: 1 µM inhibitor, mean; read-out: activity remaining in the presence of the inhibitor: PKBb
# Method: as §1
# HIPK2 = HIPK2 (Homo sapiens, UniProt Q9H2X6); experiment: Selectivity screen HIPK2; type: biochemical; settings: 1 µM inhibitor, mean
# Method: as §1
# MAPKAP-K2 = MAPKAP-K2 (Homo sapiens, UniProt P49137); experiment: Selectivity screen MAPKAP-K2; type: biochemical; settings: 1 µM inhibitor, mean
# Method: as §1
# ERK5 = ERK5 (Homo sapiens, UniProt Q13164); experiment: Selectivity screen ERK5; type: biochemical; settings: 1 µM inhibitor, mean
# Method: as §1
# HIPK1 = HIPK1 (Homo sapiens, UniProt Q86Z02); experiment: Selectivity screen HIPK1; type: biochemical; settings: 1 µM inhibitor, mean
# Method: as §1
# ZAP70 = ZAP70 (Homo sapiens, UniProt P43403); experiment: Selectivity screen ZAP70; type: biochemical; settings: 1 µM inhibitor, mean
# Method: as §1
# SYK = SYK (Homo sapiens, UniProt P43405); experiment: Selectivity screen SYK; type: biochemical; settings: 1 µM inhibitor, mean
# Method: as §1
# TGFBR1 = TGFBR1 (Homo sapiens, UniProt P36897); experiment: Selectivity screen TGFBR1; type: biochemical; settings: 1 µM inhibitor, mean
# Method: as §1
# YES1 = YES1 (Homo sapiens, UniProt P07947); experiment: Selectivity screen YES1; type: biochemical; settings: 1 µM inhibitor, mean
# Method: as §1
# PKCz = PKCz (Homo sapiens, UniProt Q05513); experiment: Selectivity screen PKCz; type: biochemical; settings: 1 µM inhibitor, mean
# Method: as §1
# EPH-A4 = EPH-A4 (Homo sapiens, UniProt P54764); experiment: Selectivity screen EPH-A4; type: biochemical; settings: 1 µM inhibitor, mean
# Method: as §1
# IRR = IRR (Homo sapiens, UniProt P14616); experiment: Selectivity screen IRR; type: biochemical; settings: 1 µM inhibitor, mean
# Method: as §1
# CK1γ2 = CK1γ2 (Homo sapiens, UniProt P78368); experiment: Selectivity screen CK1γ2; type: biochemical; settings: 1 µM inhibitor, mean
# Method: as §1
# TAO1 = TAO1 (Homo sapiens, UniProt Q7L7X3); experiment: Selectivity screen TAO1; type: biochemical; settings: 1 µM inhibitor, mean
# Method: as §1
# STK33 = STK33 (Homo sapiens, UniProt Q9BYT3); experiment: Selectivity screen STK33; type: biochemical; settings: 1 µM inhibitor, mean
# Method: as §1
# PIM3 = PIM3 (Homo sapiens, UniProt Q86V86); experiment: Selectivity screen PIM3; type: biochemical; settings: 1 µM inhibitor, mean
# Method: as §1
# TrkA = TrkA (Homo sapiens, UniProt P04629); experiment: Selectivity screen TrkA; type: biochemical; settings: 1 µM inhibitor, mean
# Method: as §1
# p38b MAPK = p38b MAPK (Homo sapiens, UniProt Q15759); experiment: Selectivity screen p38b MAPK; type: biochemical; settings: 1 µM inhibitor, mean
# Method: as §1
# JNK3 = JNK3 (Homo sapiens, UniProt P53779); experiment: Selectivity screen JNK3; type: biochemical; settings: 1 µM inhibitor, mean
# Method: as §1
# SmMLCK = SmMLCK (Homo sapiens, UniProt Q15746); experiment: Selectivity screen SmMLCK; type: biochemical; settings: 1 µM inhibitor, mean
# Method: as §1
# DYRK3 = DYRK3 (Homo sapiens, UniProt O43781); experiment: Selectivity screen DYRK3; type: biochemical; settings: 1 µM inhibitor, mean
# Method: as §1
# Sequence of JNK3 (P53779 whole entry): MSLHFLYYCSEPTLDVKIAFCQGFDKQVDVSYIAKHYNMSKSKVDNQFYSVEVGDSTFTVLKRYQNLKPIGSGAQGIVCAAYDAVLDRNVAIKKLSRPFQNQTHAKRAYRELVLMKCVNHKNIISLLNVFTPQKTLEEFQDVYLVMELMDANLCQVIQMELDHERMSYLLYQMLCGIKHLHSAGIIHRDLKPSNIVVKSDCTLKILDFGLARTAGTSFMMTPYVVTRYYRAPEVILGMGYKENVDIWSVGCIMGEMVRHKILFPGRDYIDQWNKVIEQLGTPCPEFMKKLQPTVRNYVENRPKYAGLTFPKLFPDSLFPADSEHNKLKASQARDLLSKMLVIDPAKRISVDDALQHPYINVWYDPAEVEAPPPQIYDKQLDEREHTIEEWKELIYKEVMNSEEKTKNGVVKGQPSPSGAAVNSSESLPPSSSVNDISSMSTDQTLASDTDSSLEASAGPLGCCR
# Sequence of YES1 (P07947 whole entry): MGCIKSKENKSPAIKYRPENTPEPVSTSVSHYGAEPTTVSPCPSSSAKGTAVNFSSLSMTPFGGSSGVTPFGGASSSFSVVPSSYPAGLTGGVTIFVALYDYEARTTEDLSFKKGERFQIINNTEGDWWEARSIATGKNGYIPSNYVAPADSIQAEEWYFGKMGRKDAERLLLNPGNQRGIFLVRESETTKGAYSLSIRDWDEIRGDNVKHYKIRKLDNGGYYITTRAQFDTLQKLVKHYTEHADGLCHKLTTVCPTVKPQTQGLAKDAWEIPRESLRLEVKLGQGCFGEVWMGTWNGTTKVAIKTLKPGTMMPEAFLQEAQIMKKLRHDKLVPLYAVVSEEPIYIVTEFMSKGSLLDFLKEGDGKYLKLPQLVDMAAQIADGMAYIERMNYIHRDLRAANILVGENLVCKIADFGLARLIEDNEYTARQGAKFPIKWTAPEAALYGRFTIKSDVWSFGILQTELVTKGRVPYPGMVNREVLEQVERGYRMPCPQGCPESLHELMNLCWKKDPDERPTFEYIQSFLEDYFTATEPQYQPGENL
# Sequence of DYRK3 (O43781 whole entry): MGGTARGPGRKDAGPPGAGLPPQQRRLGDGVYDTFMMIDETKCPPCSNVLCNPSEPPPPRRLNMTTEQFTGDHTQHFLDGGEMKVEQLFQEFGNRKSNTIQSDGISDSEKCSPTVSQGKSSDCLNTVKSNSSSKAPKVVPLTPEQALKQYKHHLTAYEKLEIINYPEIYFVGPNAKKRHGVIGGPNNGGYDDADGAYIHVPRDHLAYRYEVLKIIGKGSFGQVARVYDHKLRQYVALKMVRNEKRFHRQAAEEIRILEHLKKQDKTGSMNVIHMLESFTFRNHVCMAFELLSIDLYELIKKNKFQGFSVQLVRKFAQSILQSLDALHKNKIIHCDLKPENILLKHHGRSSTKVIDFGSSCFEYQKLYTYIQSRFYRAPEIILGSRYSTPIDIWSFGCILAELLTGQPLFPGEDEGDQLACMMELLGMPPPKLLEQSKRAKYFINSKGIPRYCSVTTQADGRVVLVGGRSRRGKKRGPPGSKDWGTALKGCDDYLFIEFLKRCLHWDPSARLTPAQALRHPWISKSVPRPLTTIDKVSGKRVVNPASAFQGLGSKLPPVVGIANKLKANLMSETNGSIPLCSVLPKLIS
# Sequence of TGFBR1 (P36897 34-503): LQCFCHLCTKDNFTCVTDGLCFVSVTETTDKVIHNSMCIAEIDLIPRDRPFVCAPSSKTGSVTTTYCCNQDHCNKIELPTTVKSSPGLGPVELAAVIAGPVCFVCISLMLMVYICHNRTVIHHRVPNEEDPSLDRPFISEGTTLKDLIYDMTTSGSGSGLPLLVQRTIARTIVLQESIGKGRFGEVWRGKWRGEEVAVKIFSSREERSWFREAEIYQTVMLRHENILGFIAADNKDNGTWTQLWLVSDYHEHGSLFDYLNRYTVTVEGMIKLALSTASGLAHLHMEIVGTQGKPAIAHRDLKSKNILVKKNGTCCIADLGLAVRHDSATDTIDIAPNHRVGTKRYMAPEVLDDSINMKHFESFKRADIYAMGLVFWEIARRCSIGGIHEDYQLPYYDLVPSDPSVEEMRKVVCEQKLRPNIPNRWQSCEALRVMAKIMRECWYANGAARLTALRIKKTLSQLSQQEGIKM
# Sequence of ZAP70 (P43403 whole entry): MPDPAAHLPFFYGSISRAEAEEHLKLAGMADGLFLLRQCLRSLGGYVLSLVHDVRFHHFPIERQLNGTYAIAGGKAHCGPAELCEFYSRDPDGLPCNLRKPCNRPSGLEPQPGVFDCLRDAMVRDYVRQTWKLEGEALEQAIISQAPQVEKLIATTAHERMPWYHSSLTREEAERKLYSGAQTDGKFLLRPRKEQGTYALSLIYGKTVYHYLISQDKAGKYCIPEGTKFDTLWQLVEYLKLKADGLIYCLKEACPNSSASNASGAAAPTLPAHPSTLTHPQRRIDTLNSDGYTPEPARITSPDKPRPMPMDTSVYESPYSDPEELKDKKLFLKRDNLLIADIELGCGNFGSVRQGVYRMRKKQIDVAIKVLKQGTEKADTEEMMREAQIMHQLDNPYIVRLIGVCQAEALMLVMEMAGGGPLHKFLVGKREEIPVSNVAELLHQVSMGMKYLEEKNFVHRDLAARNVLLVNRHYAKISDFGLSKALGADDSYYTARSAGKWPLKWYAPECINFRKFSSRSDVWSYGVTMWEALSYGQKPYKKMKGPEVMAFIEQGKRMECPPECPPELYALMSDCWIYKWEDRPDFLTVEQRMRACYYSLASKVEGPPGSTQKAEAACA
# Sequence of EPH-A4 (P54764 20-986): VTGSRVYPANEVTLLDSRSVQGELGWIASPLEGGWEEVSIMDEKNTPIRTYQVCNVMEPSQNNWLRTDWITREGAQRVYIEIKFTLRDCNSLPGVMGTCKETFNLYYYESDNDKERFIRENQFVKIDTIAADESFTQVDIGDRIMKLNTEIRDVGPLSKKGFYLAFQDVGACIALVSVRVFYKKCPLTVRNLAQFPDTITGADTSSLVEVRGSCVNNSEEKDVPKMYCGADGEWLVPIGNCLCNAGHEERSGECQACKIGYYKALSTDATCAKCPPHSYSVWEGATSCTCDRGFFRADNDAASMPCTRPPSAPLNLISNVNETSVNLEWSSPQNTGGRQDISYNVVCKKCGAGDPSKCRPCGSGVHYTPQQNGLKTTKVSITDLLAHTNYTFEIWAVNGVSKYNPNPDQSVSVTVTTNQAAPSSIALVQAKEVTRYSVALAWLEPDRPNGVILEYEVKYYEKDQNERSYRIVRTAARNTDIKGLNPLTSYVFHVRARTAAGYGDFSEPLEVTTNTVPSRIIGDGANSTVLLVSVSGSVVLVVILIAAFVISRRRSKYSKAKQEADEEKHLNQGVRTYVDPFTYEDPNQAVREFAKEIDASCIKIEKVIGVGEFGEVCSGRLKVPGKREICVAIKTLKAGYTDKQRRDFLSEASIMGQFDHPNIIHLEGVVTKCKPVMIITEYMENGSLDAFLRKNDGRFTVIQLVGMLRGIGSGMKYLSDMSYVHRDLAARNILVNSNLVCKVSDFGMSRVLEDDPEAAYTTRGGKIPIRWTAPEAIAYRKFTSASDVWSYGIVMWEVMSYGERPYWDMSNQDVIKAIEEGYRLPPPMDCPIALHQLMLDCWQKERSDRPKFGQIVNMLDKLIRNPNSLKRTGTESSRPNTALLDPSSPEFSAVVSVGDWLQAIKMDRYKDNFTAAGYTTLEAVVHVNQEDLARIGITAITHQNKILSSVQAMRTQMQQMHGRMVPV
# Sequence of STK33 (Q9BYT3 whole entry): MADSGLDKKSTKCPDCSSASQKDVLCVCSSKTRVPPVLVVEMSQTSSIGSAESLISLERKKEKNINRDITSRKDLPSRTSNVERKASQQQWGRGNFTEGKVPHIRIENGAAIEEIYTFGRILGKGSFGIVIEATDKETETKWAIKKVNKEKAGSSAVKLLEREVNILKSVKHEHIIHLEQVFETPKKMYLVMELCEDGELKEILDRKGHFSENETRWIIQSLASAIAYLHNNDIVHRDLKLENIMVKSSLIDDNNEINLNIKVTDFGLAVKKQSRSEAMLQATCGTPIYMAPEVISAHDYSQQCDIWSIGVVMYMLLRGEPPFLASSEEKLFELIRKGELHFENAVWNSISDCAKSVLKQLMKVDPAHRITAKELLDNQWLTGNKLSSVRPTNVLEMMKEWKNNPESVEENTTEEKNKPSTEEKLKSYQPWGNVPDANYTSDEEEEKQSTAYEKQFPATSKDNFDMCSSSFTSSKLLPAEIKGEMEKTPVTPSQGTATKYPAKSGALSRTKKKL
# Sequence of CK1γ2 (P78368 whole entry): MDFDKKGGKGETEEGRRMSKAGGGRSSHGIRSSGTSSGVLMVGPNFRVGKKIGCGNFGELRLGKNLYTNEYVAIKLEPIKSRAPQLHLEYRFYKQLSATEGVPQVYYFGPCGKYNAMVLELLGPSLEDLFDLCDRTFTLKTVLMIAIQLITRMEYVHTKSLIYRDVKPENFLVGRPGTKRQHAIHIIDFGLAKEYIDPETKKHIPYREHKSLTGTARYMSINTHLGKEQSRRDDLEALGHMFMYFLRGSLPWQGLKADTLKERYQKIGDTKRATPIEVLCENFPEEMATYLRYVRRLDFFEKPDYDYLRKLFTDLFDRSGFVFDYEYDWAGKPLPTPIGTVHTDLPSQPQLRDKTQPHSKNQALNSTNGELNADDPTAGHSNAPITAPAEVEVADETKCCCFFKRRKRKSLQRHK
# Sequence of CAMK1 (Q14012 whole entry): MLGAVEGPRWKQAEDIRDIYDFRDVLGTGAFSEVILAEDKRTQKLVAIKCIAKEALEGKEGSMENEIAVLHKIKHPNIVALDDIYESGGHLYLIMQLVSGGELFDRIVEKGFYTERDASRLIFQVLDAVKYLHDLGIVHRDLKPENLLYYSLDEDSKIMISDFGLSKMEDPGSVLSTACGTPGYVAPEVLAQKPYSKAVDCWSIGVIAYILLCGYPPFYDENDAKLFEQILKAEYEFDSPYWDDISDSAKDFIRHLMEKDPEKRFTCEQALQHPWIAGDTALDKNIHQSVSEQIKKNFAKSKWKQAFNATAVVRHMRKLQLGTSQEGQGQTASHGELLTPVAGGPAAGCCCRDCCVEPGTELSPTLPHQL
Structure (SMILES),block of IL-4 induced STAT6 phosphorylation in spleenocytes [1],activity remaining in the presence of the inhibitor: CAMK1 (CAMK1),activity remaining in the presence of the inhibitor: JNK2 (JNK2),activity remaining in the presence of the inhibitor: WNK1 (WNK1),activity remaining in the presence of the inhibitor: VEG-FR (VEG-FR),activity remaining in the presence of the inhibitor: RSK1 (RSK1),remaining activity at 1 µM (PKBb),activity remaining in the presence of the inhibitor: HIPK2 (HIPK2),activity remaining in the presence of the inhibitor: MAPKAP-K2 (MAPKAP-K2),activity remaining in the presence of the inhibitor: ERK5 (ERK5),activity remaining in the presence of the inhibitor: HIPK1 (HIPK1),activity remaining in the presence of the inhibitor: ZAP70 (ZAP70),activity remaining in the presence of the inhibitor: SYK (SYK),activity remaining in the presence of the inhibitor: TGFBR1 (TGFBR1),activity remaining in the presence of the inhibitor: YES1 (YES1),activity remaining in the presence of the inhibitor: PKCz (PKCz),activity remaining in the presence of the inhibitor: EPH-A4 (EPH-A4),activity remaining in the presence of the inhibitor: IRR (IRR),activity remaining in the presence of the inhibitor: CK1γ2 (CK1γ2),activity remaining in the presence of the inhibitor: TAO1 (TAO1),other results
"C=CC(=O)N1C[C@H](Nc2ncnc3[nH]ccc23)CC[C@@H]1C [PF-06651600, 1-((2S,5R)-5-((7H-Pyrrolo[2,3-d]pyrimidin-4-yl)amino)-2-methylpiperidin-1-yl)prop-2-en-1-one, reference compound]",able to block,–,–,–,–,–,–,–,–,–,–,–,–,–,–,–,–,–,–,–,–
C=CC(=O)Nc1cccc(CNc2nc(Nc3ccc(N4CCN(C)CC4)cc3OC)ncc2Cl)c1 [TL6-144],–,68,98,81,39,61,107%,87,103,87,79,86,107,83,89,88,104,56,82,99,activity remaining in the presence of the inhibitor: STK33 (STK33): 81; activity remaining in the presence of the inhibitor: PIM3 (PIM3): 100; activity remaining in the presence of the inhibitor: TrkA (TrkA): 59; activity remaining in the presence of the inhibitor: p38b MAPK (p38b MAPK): 93; activity remaining in the presence of the inhibitor: JNK3 (JNK3): 87; activity remaining in the presence of the inhibitor: SmMLCK (SmMLCK): 62; activity remaining in the presence of the inhibitor: DYRK3 (DYRK3): 95
C=CC(=O)Nc1cccc(CNc2nc(Nc3ccc(N4CCOCC4)cc3)ncc2Cl)c1 [TL8-52],able to block,97,95,112,6,60,107%,97,97,63,96,77,63,104,47,98,99,75,96,91,activity remaining in the presence of the inhibitor: STK33 (STK33): 94; activity remaining in the presence of the inhibitor: PIM3 (PIM3): 90; activity remaining in the presence of the inhibitor: TrkA (TrkA): 23; activity remaining in the presence of the inhibitor: p38b MAPK (p38b MAPK): 96; activity remaining in the presence of the inhibitor: JNK3 (JNK3): 69; activity remaining in the presence of the inhibitor: SmMLCK (SmMLCK): 98; activity remaining in the presence of the inhibitor: DYRK3 (DYRK3): 95
